According to US11046686B2, “Thiadiazole IRAK4 compounds” (Gilead Sciences, Inc., priority 2018, dated 2021):
Read-outs that look alike come from different tables or passages of the source.

Columns and labels:
TNFα = assay: IRAK4 Monocyte TNFα Cell Based Assay; parameters: species or system human; conditions: human monocytes, second part of Table 2, compounds 33-343, unit inferred, read-out: EC50 MONO TNF HTRF
Outline: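 TNFα release quantified by HTRF (cryptate/XL665 antibody pair, overnight at RT) after 1 h compound pre-incubation (0.1% DMSO) and 4 h LPS challenge at 50 pg/ml, 37 °C, 5,000 monocytes per well. Signal ratio normalised between unstimulated (0%) and stimulated (100%) controls.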

IRAK4 enzyme = IRAK4 enzyme (Homo sapiens (Human), UniProt Q9NWZ3); assay: IRAK4 Biochemical Assay (TR-FRET, STK1 KinEASE)
IRAK4 enzyme, sequence (Q9NWZ3 whole entry): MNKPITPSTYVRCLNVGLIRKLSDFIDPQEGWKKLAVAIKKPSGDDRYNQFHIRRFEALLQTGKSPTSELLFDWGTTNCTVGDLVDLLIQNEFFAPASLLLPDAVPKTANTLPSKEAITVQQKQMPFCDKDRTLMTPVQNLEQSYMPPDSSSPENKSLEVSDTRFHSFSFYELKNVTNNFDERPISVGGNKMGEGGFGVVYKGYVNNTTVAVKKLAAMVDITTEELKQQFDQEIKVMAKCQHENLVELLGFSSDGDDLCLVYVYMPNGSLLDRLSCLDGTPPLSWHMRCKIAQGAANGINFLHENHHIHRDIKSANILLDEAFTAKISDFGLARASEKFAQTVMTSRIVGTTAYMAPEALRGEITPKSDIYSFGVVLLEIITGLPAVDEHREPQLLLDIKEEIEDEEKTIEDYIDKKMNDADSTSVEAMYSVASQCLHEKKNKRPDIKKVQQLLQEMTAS
Method: IRAK4 enzyme (Carna Biosciences, Chuo-ku, Kobe, Japan) activity was measured by detecting phosphorylated peptide substrate formation using an antibody against the phosphorylated peptide substrate. This is a time-resolved fluorescence resonance energy transfer (TR-FRET) immunoassay, based on the STK1 KinEASE Assay (Cisbio, Bedford, Mass.). The assay was designed as a simple two-step, endpoint assay (a 5 μl enzyme reaction followed by 5 μl stop and detect Solution) performed in ProxiPlate-384 Plus plates (Perkin Elmer, Waltham, Mass.). […] Compounds diluted in DMSO were spotted into 384 well plates using a Labcyte® Echo 550 Liquid Handling System prior to addition of IRAK4 enzyme and peptide substrate. Reaction solutions were delivered using a Multi-Flo (Bio-Tek Instruments). The enzyme and peptide solution was incubated with compound for 15 minutes at room temp before the reaction was initiated by the addition of ATP. The standard 5 μl reaction mixture contained 500 μM ATP, […] peptide (STK1 Peptide), 0.75 nM of IRAK4 in reaction buffer (50 mM HEPES, pH 7.0, 0.02% NaN3, 0.01% BSA, 0.1 mM Orthovanadate, 5 mM […], 0.025% NP-40, 1 mM DTT). After 120 min of incubation at room temperature, 5 μl of Stop and Detect Solution (1:100 Cryptate labeled anti-phosphorylated peptide antibody solution and 125 nM Tracer in a 50 mM HEPES pH 7.0 detection buffer containing sufficient EDTA) was added. The plate was then further incubated for 60 minutes at room temperature and read on Envision 2103 Multilabeled reader (PerkinElmer) with excitation/emission/FRET emission at 340 nm/615 nm665 nm, respectively. Fluorescence intensities at 615 nm and 665 nm emission wavelengths were expressed as aratio (665 nm/615 nm). Percentage of inhibition was calculated as below: % Inhibition=100×(Ratiosample−Ratio0% Inhibition)/(Ratio100% Inhibition−Ratio0% Inhibition)
The 0% inhibition value comes from control wells lacking inhibitor.

[1] = second part of Table 2, compounds 33-343, unit inferred, read-out: IC50 IRAK4-HTBS

SMILES	EC50 (TNFα) [nM]	IC50 (IRAK4 enzyme) [nM]	other results
CC(C)Nc1cc(-c2ccc3cc(C#N)cnn23)ncc1-c1nnc([C@@H]2C[C@H]2C(C)(C)O)s1 (single isomer, unassigned; isomer 1) [132 Isomer 1]	12.5		IC50 (IRAK4 enzyme; [1]): 1.29 nM
CC(C)(O)[C@H]1C[C@@H]1c1nnc(-c2cnc(-c3ccc4cc(C#N)cnn34)cc2NC2COC2)s1 (single isomer, unassigned; isomer 1) [136 Isomer 1]	4.2		IC50 (IRAK4 enzyme; [1]): 0.57 nM
CC(C)Nc1cc(-c2ccc3cc(C#N)cnn23)ncc1-c1nnc(C(=O)N2CCC[C@@H]2CN)s1 [Compound 230, (R)-7-(5-(5-(2-(aminomethyl)pyrrolidine-1-carbonyl)-1,3,4-thiadiazol-2-yl)-4-(isopropylamino)pyridin-2-yl)pyrrolo[1,2-b]pyridazine-3-carbonitrile]		0.74	
CC(=O)NC12CCC(c3nnc(-c4cnc(-c5ccc6cc(C#N)cnn56)cc4N[C@H](C)C#N)s3)(CC1)CC2 [Example 72, (R)—N-(4-(5-(4-((1-cyanoethyl)amino)-6-(3-cyanopyrrolo[1,2-b]pyridazin-7-yl)pyridin-3-yl)-1,3,4-thiadiazol-2-yl)bicyclo[2.2.2]octan-1-yl)acetamide]		0.54	
CC(C)Nc1cc(-c2ccc3cc(C#N)cnn23)ncc1-c1nnc(N2C[C@H]3CC[C@@H](C2)[C@@H]3NC(=O)[C@@H](C)O)s1 [Example 90, (R)—N-((1R,5S,8s)-3-(5-(6-(3-cyanopyrrolo[1,2-b]pyridazin-7-yl)-4-(isopropylamino)pyridin-3-yl)-1,3,4-thiadiazol-2-yl)-3-azabicyclo[3.2.1]octan-8-yl)-2-hydroxypropanamide]		1.39	
CC(C)Nc1cc(-c2ccc3cc(C#N)cnn23)ncc1-c1nnc(N2C[C@H]3CC[C@@H](C2)[C@@H]3NC(=O)N2CCN(C)CC2)s1 [Example 96, N-((1R,5S,8s)-3-(5-(6-(3-cyanopyrrolo[1,2-b]pyridazin-7-yl)-4-(isopropylamino)pyridin-3-yl)-1,3,4-thiadiazol-2-yl)-3-azabicyclo[3.2.1]octan-8-yl)-4-methylpiperazine-1-carboxamide]		0.58	
CC(=O)N1CCN(C(=O)N[C@@H]2[C@@H]3CC[C@H]2CN(c2nnc(-c4cnc(-c5ccc6cc(C#N)cnn56)cc4NC(C)C)s2)C3)CC1 [Example 104, 4-acetyl-N-((1R,5S,8s)-3-(5-(6-(3-cyanopyrrolo[1,2-b]pyridazin-7-yl)-4-(isopropylamino)pyridin-3-yl)-1,3,4-thiadiazol-2-yl)-3-azabicyclo[3.2.1]octan-8-yl)piperazine-1-carboxamide]		0.99	
CC(C)Nc1cc(-c2ccc3cc(C#N)cnn23)ncc1-c1nnc(C2CCNCC2)s1 [Example 129, 7-(4-(isopropylamino)-5-(5-(piperidin-4-yl)-1,3,4-thiadiazol-2-yl)pyridin-2-yl)pyrrolo[1,2-b]pyridazine-3-carbonitrile]		0.59	
CC(=O)NC12CCC(c3nnc(-c4cnc(-c5ccc6cc(C#N)cnn56)cc4NC4COC4)s3)(CC1)OC2 [Example 198, N-(1-(5-(6-(3-cyanopyrrolo[1,2-b]pyridazin-7-yl)-4-(oxetan-3-ylamino)pyridin-3-yl)-1,3,4-thiadiazol-2-yl)-2-oxabicyclo[2.2.2]octan-4-yl)acetamide]		0.79	
CC(C)Nc1cc(-c2ccc3cc(C#N)cnn23)ncc1-c1nnc(C(=O)N2CCC[C@H]2CN)s1 [Example 229, (S)-7-(5-(5-(2-(aminomethyl)pyrrolidine-1-carbonyl)-1,3,4-thiadiazol-2-yl)-4-(isopropylamino)pyridin-2-yl)pyrrolo[1,2-b]pyridazine-3-carbonitrile]		0.64	
CC(C)Nc1cc(-c2ccc3cc(C#N)cnn23)ncc1-c1nnc([C@H]2C[C@H](NC3COC3)C2)s1 [Example 283, 7-(4-(isopropylamino)-5-(5-((1r,3r)-3-(oxetan-3-ylamino)cyclobutyl)-1,3,4-thiadiazol-2-yl)pyridin-2-yl)pyrrolo[1,2-b]pyridazine-3-carbonitrile]		0.66	
CC(=O)NC[C@H]1C[C@@H](c2nnc(-c3cnc(-c4ccc5cc(C#N)cnn45)cc3NC(C)C)s2)C1 [Example 289, N-(((1s,3s)-3-(5-(6-(3-cyanopyrrolo[1,2-b]pyridazin-7-yl)-4-(isopropylamino)pyridin-3-yl)-1,3,4-thiadiazol-2-yl)cyclobutyl)methyl)acetamide]	21.4		
CC(=O)NC[C@H]1C[C@H](c2nnc(-c3cnc(-c4ccc5cc(C#N)cnn45)cc3NC(C)C)s2)C1 [Example 290, N-(((1r,3r)-3-(5-(6-(3-cyanopyrrolo[1,2-b]pyridazin-7-yl)-4-(isopropylamino)pyridin-3-yl)-1,3,4-thiadiazol-2-yl)cyclobutyl)methyl)acetamide]	16.2		
CNc1cc(-c2ccc3cc(C#N)cnn23)ncc1-c1nnc(N2C[C@H]3CC[C@@H](C2)[C@@H]3NC(C)=O)s1 [Example 292, N-((1R,5S,8s)-3-(5-(6-(3-cyanopyrrolo[1,2-b]pyridazin-7-yl)-4-(methylamino)pyridin-3-yl)-1,3,4-thiadiazol-2-yl)-3-azabicyclo[3.2.1]octan-8-yl)acetamide]	6.7		
CC(C)Nc1cc(-c2ccc3cc(C#N)cnn23)ncc1-c1nnc(N2CCC(F)(F)CC2)s1 [Example 294, 7-(5-(5-(4,4-difluoropiperidin-1-yl)-1,3,4-thiadiazol-2-yl)-4-(isopropylamino)pyridin-2-yl)pyrrolo[1,2-b]pyridazine-3-carbonitrile]			EC50 (TNFα; Homo sapiens, Monocyte): 1000 nM
CC(=O)N(C)[C@@H]1[C@@H]2CC[C@H]1CN(c1nnc(-c3cnc(-c4ccc5cc(C#N)cnn45)cc3NC(C)C)s1)C2 [Example 300]	5.3		
CC(C)Nc1cc(-c2ccc3cc(C#N)cnn23)ncc1-c1nnc(N2C[C@H]3CC[C@@H](C2)[C@@H]3N2CCOC2=O)s1 [Example 301, 7-(4-(isopropylamino)-5-(5-((1R,5S,8s)-8-(2-oxooxazolidin-3-yl)-3-azabicyclo[3.2.1]octan-3-yl)-1,3,4-thiadiazol-2-yl)pyridin-2-yl)pyrrolo[1,2-b]pyridazine-3-carbonitrile]	4.9		
CC(=O)N1C[C@@H]2C[C@H]1CN2c1nnc(-c2cnc(-c3ccc4cc(C#N)cnn34)cc2NC(C)C)s1 [Example 302, 7-(5-(5-((1S,4S)-5-acety1-2,5-diazabicyclo[2.2.1]heptan-2-yl)-1,3,4-thiadiazol-2-yl)-4-(isopropylamino)pyridin-2-yl)pyrrolo[1,2-b]pyridazine-3-carbonitrile]	5.3		
CC(C)Nc1cc(-c2ccc3cc(C#N)cnn23)ncc1-c1nnc(N2CCN(C3COC3)CC2)s1 [Example 304]	9.8		
CC(C)Nc1cc(-c2ccc3cc(C#N)cnn23)ncc1-c1nnc(N2C[C@H]3CC[C@@H](C2)[C@@H]3Nc2ncccn2)s1 [Example 308, 7-(4-(isopropylamino)-5-(5-((1R,5S,8s)-8-(pyrimidin-2-ylamino)-3-azabicyclo[3.2.1]octan-3-yl)-1,3,4-thiadiazol-2-yl)pyridin-2-yl)pyrrolo[1,2-b]pyridazine-3-carbonitrile]	18.4		
CC(C)Nc1cc(-c2ccc3cc(C#N)cnn23)ncc1-c1nnc(N2C[C@H]3CC[C@@H](C2)[C@@H]3Nc2ncccc2F)s1 [Example 309]	687		
CC(C)(O)C(=O)N[C@H]1CC[C@@H](c2nnc(-c3cnc(-c4ccc5cc(C#N)cnn45)cc3NC3COC3)s2)CC1 [Example 311, N-((1s,4s)-4-(5-(6-(3-cyanopyrrolo[1,2-b]pyridazin-7-yl)-4-(oxetan-3-ylamino)pyridin-3-yl)-1,3,4-thiadiazol-2-yl)cyclohexyl)-2-hydroxy-2-methylpropanamide]	22.6		
CC(C)Nc1cc(-c2ccc3cc(C#N)cnn23)ncc1-c1nnc([C@H]2CC[C@@H](NC(=O)C(C)(C)O)CC2)s1 [Example 312, N-((1s,4s)-4-(5-(6-(3-cyanopyrrolo[1,2-b]pyridazin-7-yl)-4-(isopropylamino)pyridin-3-yl)-1,3,4-thiadiazol-2-yl)cyclohexyl)-2-hydroxy-2-methylpropanamide]	17.5		
CC(C)Nc1cc(-c2ccc3cc(C#N)cnn23)ncc1-c1nnc([C@H]2CC[C@H](NC(=O)C(C)(C)O)CC2)s1 [Example 315, N-((1r,4r)-4-(5-(6-(3-cyanopyrrolo[1,2-b]pyridazin-7-yl)-4-(isopropylamino)pyridin-3-yl)-1,3,4-thiadiazol-2-yl)cyclohexyl)-2-hydroxy-2-methylpropanamide]	10.9		
CCOC(=O)Cc1nnc(-c2cnc(-c3ccc4cc(C#N)cnn34)cc2NC(C)C)s1 [Example 318]	102		
